Test systems include SN12C renal; OVCAR-5 ovarian; OVCAR-8 ovarian; U251 CNS; UO-31 renal; T-47D breast; OVCAR-3 ovarian; LOX IMVI melanoma; HCC-2998 colon; HL-60(TB) leukemia.
Holding throughout (experiment): NCI tumour cell line growth inhibition, 48 h

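In this assay, cells in 96-well plates receive the compound at five concentrations for 48 hours. Endpoints are linearly interpolated between the surrounding concentrations. GI50 is the concentration that inhibits growth by half. TGI: concentration producing complete growth inhibition.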

Regarding `CCCCn1c(=O)c2c(nc3n2CCCN3CCc2ccc(OCC(=O)NCCN(CC)CC)cc2)n(CCCC)c1=O`, the GI50 is 5.76 µM with SN12C renal; 7.58 µM with OVCAR-5 ovarian; 7.1 µM in the test on OVCAR-8 ovarian; 2.14 µM in the test on U251 CNS; 1.51 µM in the test with UO-31 renal; 4.3 µM in the test with T-47D breast. The GI50 in the test with OVCAR-3 ovarian was 4.7 µM; in the test on LOX IMVI melanoma it was 0.929 µM; in the test on HCC-2998 colon, 2.93 µM; in the test with HL-60(TB) leukemia, 5.97 µM. Further, the TGI in the test on SN12C renal is 15.3 µM; in the test on OVCAR-5 ovarian it was 18 µM; in the test with OVCAR-8 ovarian, 26.4 µM; in the test on U251 CNS, 8.1 µM; in the test with UO-31 renal, 7.86 µM; with T-47D breast, 13.7 µM. For the same compound, the TGI was determined as 11.2 µM with OVCAR-3 ovarian, 1.99 µM in the test on LOX IMVI melanoma, 9.73 µM in the test on HCC-2998 colon and 15.6 µM in the test on HL-60(TB) leukemia.

The values are drawn from PubChem BioAssay (NCI).
